ChEMBL document CHEMBL4431311, “Endothelin-Receptor Antagonists beyond Pulmonary Arterial Hypertension: Cancer and Fibrosis” (J Med Chem, 2016)

Tests used:
[1] = target: T1, Endothelin-1 receptor (Homo sapiens) (UniProt P25101); test: Binding affinity to ET-A receptor (unknown origin) assessed as dissociation half life
T1 sequence (whole entry): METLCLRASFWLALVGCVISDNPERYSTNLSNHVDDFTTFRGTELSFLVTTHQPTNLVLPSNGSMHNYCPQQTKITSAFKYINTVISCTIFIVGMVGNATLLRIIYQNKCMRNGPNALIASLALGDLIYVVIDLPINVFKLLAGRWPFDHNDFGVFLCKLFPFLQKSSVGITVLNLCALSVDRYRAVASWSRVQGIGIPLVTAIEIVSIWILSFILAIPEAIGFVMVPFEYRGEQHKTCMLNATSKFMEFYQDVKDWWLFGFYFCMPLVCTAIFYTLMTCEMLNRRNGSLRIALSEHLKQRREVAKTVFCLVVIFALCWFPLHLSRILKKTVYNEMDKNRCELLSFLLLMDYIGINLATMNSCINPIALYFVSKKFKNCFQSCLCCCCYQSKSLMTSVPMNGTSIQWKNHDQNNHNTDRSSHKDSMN

[2] = target: T2, Endothelin receptor type B (Homo sapiens, UniProt P24530); test: Displacement of [125I]ET-1 from ET-B receptor in human Girardi heart cells incubated for 4 hrs by gamma counting method; type: cell-based
T2 sequence (P24530 whole entry): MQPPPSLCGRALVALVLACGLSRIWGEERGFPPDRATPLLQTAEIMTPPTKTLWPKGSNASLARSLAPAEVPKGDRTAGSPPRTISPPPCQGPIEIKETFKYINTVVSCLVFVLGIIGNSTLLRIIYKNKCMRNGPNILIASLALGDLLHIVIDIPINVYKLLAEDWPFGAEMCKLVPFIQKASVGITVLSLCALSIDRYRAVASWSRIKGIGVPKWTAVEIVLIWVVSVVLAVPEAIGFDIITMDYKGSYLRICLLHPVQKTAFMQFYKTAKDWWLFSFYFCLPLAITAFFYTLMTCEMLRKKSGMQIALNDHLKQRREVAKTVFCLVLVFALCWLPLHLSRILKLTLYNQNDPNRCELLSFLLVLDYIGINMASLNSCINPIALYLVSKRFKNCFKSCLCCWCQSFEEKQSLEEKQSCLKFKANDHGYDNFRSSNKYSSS

Endothelin-1 receptor [3] = target: T3, Endothelin-1 receptor (Homo sapiens, UniProt P25101); test: Displacement of [125I]ET-1 from ET-A receptor in human SK-N-MC cells incubated for 4 hrs by gamma counting method; type: cell-based
T3 sequence (P25101 whole entry): T1 sequence (whole entry)

Endothelin-1 receptor [4] = target: T3, Endothelin-1 receptor; test: Displacement of [125I]ET-1 from human ET-A receptor expressed in CHO cell membrane incubated for 2 hrs; type: cell membranes

Q: How did the T1/2 [1] turn out when `COc1ccccc1Oc1c(NS(=O)(=O)c2ccc(C(C)(C)C)cc2)nc(-c2ncccn2)nc1OCCO` was run?
A: The T1/2 was 1 min.

Q: What does the source list for `CCCC[C@H](NC(=O)[C@@H](Cc1cn(C(=O)OC)c2ccccc12)NC(=O)[C@@H](CC(C)(C)C)NC(=O)N1[C@H](C)CCC[C@@H]1C)C(=O)O`?
A: IC50 [2]: 1.2 nM; IC50 (Endothelin-1 receptor [3]): 1300 nM

Q: Which IC50 (Endothelin-1 receptor [4]) does the source give for `Cc1cc(C)cc(C(=O)N(C)[C@H](Cc2ccc(-c3ccccc3)cc2)C(=O)N[C@@H](Cc2c[nH]c3ccccc23)C(=O)O)c1` here?
A: Its IC50 is 94 nM.
